This note sets out measurements from PubChem BioAssay (NCI).

Among the test systems are HCC-2998 colon; UACC-257 melanoma; K-562 leukemia; A498 renal; COLO 205 colon; BT-549 breast; TK-10 renal; OVCAR-8 ovarian; DU-145 prostate; HCT-116 colon.
Common to all, as to assay: NCI tumour cell line growth inhibition, 48 h

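Assay format: 96-well plates, 48-hour exposure. Here, GI50 denotes the concentration required for 50% inhibition of growth. The concentration for full growth arrest is given as TGI.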 A value given as a limit tells only on which side of the number the result lay.

For the molecule `COc1cccc2c1C(=O)c1c(O)c3c(c(O)c1C2=O)C[C@@](O)(C(=O)CO)C[C@@H]3OC1C[C@H](N)[C@H](O)[C@H](C)O1` (stereo partly drawn), the GI50 in the assay on HCC-2998 colon was 0.0678 µM; in the assay with UACC-257 melanoma, 0.102 µM; with K-562 leukemia it was 0.089 µM; in the assay on A498 renal, 0.0482 µM; with COLO 205 colon, 0.0904 µM; in the assay with BT-549 breast it was 0.059 µM. Also, the GI50 in the assay with TK-10 renal is 0.177 µM; with OVCAR-8 ovarian it was 0.067 µM; in the assay with DU-145 prostate, 0.0684 µM; with HCT-116 colon, 0.036 µM. The TGI was 0.34 µM in the assay with HCC-2998 colon; 1.8 µM in the assay on UACC-257 melanoma; 3.18 µM in the assay on K-562 leukemia; 0.146 µM in the assay on A498 renal; 0.446 µM with COLO 205 colon; 0.241 µM in the assay on BT-549 breast. Also, the TGI with OVCAR-8 ovarian is greater than 16.2 µM; in the assay on HCT-116 colon it was 0.212 µM.
With `COC(=O)[C@]12CC[C@@H](C)[C@H](C)[C@@H]1C1=CC[C@@H]3[C@@]4(C)C=C(O)C(=O)[C@@]5(C)COC(=C54)C[C@@]3(C)[C@]1(C)CC2`, the GI50 is 11.5 µM in the assay with HCC-2998 colon; 4.32 µM in the assay on UACC-257 melanoma; 3.12 µM in the assay on K-562 leukemia; 15.2 µM in the assay with A498 renal; 13.5 µM with COLO 205 colon; 7.96 µM in the assay with BT-549 breast. Besides, the GI50 in the assay on TK-10 renal was 12.5 µM; in the assay on OVCAR-8 ovarian, 12.9 µM; in the assay with DU-145 prostate it was 11.7 µM; with HCT-116 colon, 9.49 µM. Besides, the TGI came to 26.7 µM with HCC-2998 colon; 18.8 µM in the assay with UACC-257 melanoma; 13.8 µM in the assay with K-562 leukemia; 32.5 µM in the assay on A498 renal; 29.6 µM in the assay with COLO 205 colon; 25.8 µM in the assay on BT-549 breast. In addition, the TGI is 29.8 µM in the assay on TK-10 renal, 47 µM with OVCAR-8 ovarian, 28.2 µM with DU-145 prostate and 22.9 µM with HCT-116 colon.
As for `COc1ccc(Cl)cc1NC(=O)C(Br)C(Br)C(=O)O` (stereo not drawn), the GI50 in the assay on HCC-2998 colon was 8.25 µM; in the assay with UACC-257 melanoma, 11 µM; in the assay with K-562 leukemia, 1.46 µM; in the assay with A498 renal, 27.5 µM; with COLO 205 colon, 18.1 µM; in the assay with BT-549 breast, 3.23 µM. The GI50 is 6.59 µM with TK-10 renal, 9.01 µM in the assay on OVCAR-8 ovarian, 35.7 µM with DU-145 prostate and 3.09 µM in the assay on HCT-116 colon. The TGI in the assay with HCC-2998 colon is 22.2 µM; with UACC-257 melanoma, 40.5 µM; in the assay on K-562 leukemia, greater than 100 µM; in the assay on A498 renal, 73.2 µM; in the assay with COLO 205 colon, 34 µM; in the assay with BT-549 breast, 13 µM. Further, the TGI in the assay on TK-10 renal is 28 µM; in the assay with OVCAR-8 ovarian, greater than 100 µM; in the assay with DU-145 prostate, greater than 100 µM; in the assay with HCT-116 colon, 9.49 µM.
With `Cc1cc(Cc2cc(C)cc(C(C)(C)C)c2O)c(O)c(C(C)(C)C)c1`, the GI50 is 4.3 µM with HCC-2998 colon; 9.55 µM with UACC-257 melanoma; 3.95 µM with K-562 leukemia; 12.9 µM in the assay with A498 renal; 6.73 µM in the assay on COLO 205 colon; 11 µM in the assay with BT-549 breast. Further, the GI50 in the assay with TK-10 renal is 8.22 µM; with OVCAR-8 ovarian it was 5.17 µM; with DU-145 prostate, 4.9 µM; in the assay with HCT-116 colon it was 3.13 µM. Besides, the TGI is 15.9 µM in the assay with HCC-2998 colon; 21.8 µM in the assay on UACC-257 melanoma; 19.8 µM with K-562 leukemia; 25.5 µM with A498 renal; 19.6 µM with COLO 205 colon; 23.9 µM in the assay with BT-549 breast. The TGI in the assay on TK-10 renal was 21.3 µM; in the assay with OVCAR-8 ovarian it was 16.4 µM; in the assay with DU-145 prostate, 16.6 µM; with HCT-116 colon, 11.7 µM.
With `CN(C)C(=O)c1cc2cnc(Nc3ccc(-c4csc5c(=O)cc(N6CCOCC6)oc45)cc3)nc2n1C1CCCC1`, the GI50 is 0.219 µM in the assay with HCC-2998 colon; 0.269 µM in the assay on UACC-257 melanoma; 0.285 µM with K-562 leukemia; 0.0547 µM with A498 renal; 0.166 µM in the assay on COLO 205 colon; 0.166 µM in the assay with BT-549 breast. Moreover, the GI50 in the assay on TK-10 renal is 0.194 µM; in the assay on OVCAR-8 ovarian, 0.268 µM; in the assay with DU-145 prostate, 0.265 µM; with HCT-116 colon, 0.169 µM. Further, the TGI in the assay on HCC-2998 colon was 1.2 µM; in the assay on UACC-257 melanoma, 0.909 µM; in the assay with K-562 leukemia it was greater than 100 µM; in the assay with A498 renal it was 0.244 µM; with COLO 205 colon it was 1.32 µM; with BT-549 breast, 0.686 µM. Besides, the TGI is greater than 100 µM in the assay on TK-10 renal, greater than 30.5 µM with OVCAR-8 ovarian, 1.32 µM in the assay on DU-145 prostate and 0.815 µM in the assay with HCT-116 colon.
Turning to `C=CCC1(O)c2cccc(NCCO)c2C(=O)c2c(NCCO)cccc21`, the GI50 with HCC-2998 colon, in the assay with UACC-257 melanoma, with K-562 leukemia, in the assay on A498 renal, in the assay with COLO 205 colon and in the assay with BT-549 breast was greater than 100 µM each time. Also, the GI50 with TK-10 renal, in the assay with OVCAR-8 ovarian, in the assay on DU-145 prostate and with HCT-116 colon was greater than 100 µM in each case. Besides, the TGI in the assay on HCC-2998 colon, in the assay on UACC-257 melanoma, with K-562 leukemia, in the assay on A498 renal, in the assay with COLO 205 colon and in the assay with BT-549 breast was greater than 100 µM throughout. Further, the TGI in the assay with TK-10 renal, in the assay on OVCAR-8 ovarian, with DU-145 prostate and with HCT-116 colon was greater than 100 µM each time.
On to `COc1ccccc1/C=N\N=C(N/N=C/c1ccccc1OC)N/N=C/c1ccccc1OC`, for which the GI50 with HCC-2998 colon is 3.82 µM; with UACC-257 melanoma, 3.12 µM; in the assay with K-562 leukemia, 3.09 µM; with A498 renal, 2.73 µM; with COLO 205 colon it was 2.11 µM; in the assay on BT-549 breast it was 2.88 µM. Further, the GI50 is 6.01 µM in the assay on TK-10 renal, 3.23 µM in the assay with OVCAR-8 ovarian, 3.92 µM with DU-145 prostate and 3.04 µM in the assay with HCT-116 colon. The TGI in the assay with HCC-2998 colon is greater than 100 µM; in the assay with UACC-257 melanoma, 10.2 µM; in the assay on K-562 leukemia it was 36.4 µM; in the assay with A498 renal, 9.92 µM; in the assay with COLO 205 colon, 4.63 µM; in the assay with BT-549 breast it was 9.83 µM. The TGI was greater than 100 µM in the assay on TK-10 renal, 14.5 µM in the assay with OVCAR-8 ovarian, greater than 100 µM in the assay with DU-145 prostate and 11.3 µM in the assay with HCT-116 colon.
As for `CC(C)NC(=O)OCc1c(COC(=O)NC(C)C)c(-c2ccc(Cl)cc2)n2c1CCC2`, the GI50 in the assay on HCC-2998 colon was 6.77 µM; in the assay with UACC-257 melanoma, 4.16 µM; in the assay on K-562 leukemia, 2.65 µM; with A498 renal, 1.92 µM; in the assay with COLO 205 colon, 4.26 µM; with BT-549 breast, 2.4 µM. In addition, the GI50 with TK-10 renal was 1.98 µM; in the assay with OVCAR-8 ovarian, 4.1 µM; in the assay with DU-145 prostate, 2.1 µM; in the assay with HCT-116 colon, 3.54 µM. Also, the TGI is 20.4 µM in the assay on HCC-2998 colon; 29.4 µM with UACC-257 melanoma; greater than 26.1 µM with K-562 leukemia; 4.46 µM in the assay on A498 renal; 17.1 µM in the assay with COLO 205 colon; 15.1 µM in the assay on BT-549 breast. For the same molecule, the TGI is 7.97 µM in the assay with TK-10 renal, greater than 85.5 µM with OVCAR-8 ovarian, 7.18 µM in the assay on DU-145 prostate and 17.5 µM in the assay with HCT-116 colon.
Turning to `COc1ccc(/C=C/C(=O)Oc2cc(O)cc(O)c2)cc1`, the TGI in the assay with HCC-2998 colon, in the assay on UACC-257 melanoma, in the assay with K-562 leukemia, in the assay on A498 renal, with COLO 205 colon and in the assay on BT-549 breast was greater than 100 µM in each case. Also, the TGI was greater than 100 µM in the assay on TK-10 renal, greater than 100 µM in the assay on OVCAR-8 ovarian, greater than 100 µM with DU-145 prostate and 39.5 µM in the assay on HCT-116 colon.
In the case of `COc1cc(/C=C2\CCC(CN(C)C)C2=O)ccc1OC(=O)c1ccccc1` (stereo not drawn), the TGI with HCC-2998 colon was 30.1 µM; in the assay with UACC-257 melanoma, 26.6 µM; with K-562 leukemia, 9.04 µM; in the assay with A498 renal it was 33.1 µM; with COLO 205 colon it was 24.8 µM; in the assay on BT-549 breast it was 30 µM. Further, the TGI with TK-10 renal was 23.5 µM; with OVCAR-8 ovarian it was 22 µM; with DU-145 prostate it was 29.8 µM; in the assay with HCT-116 colon, 22.1 µM.
In the case of `Cn1cc(-c2cnc3ccc4ccc(CS(=O)(=O)NCc5ccccn5)cc4c(=O)c3c2)cn1`, the GI50 with HCC-2998 colon was 13.4 µM; in the assay with UACC-257 melanoma it was 15 µM; in the assay on K-562 leukemia it was 4.78 µM; in the assay with A498 renal it was 18.1 µM; with COLO 205 colon, 18.6 µM; in the assay on BT-549 breast, 12.4 µM. The GI50 in the assay on TK-10 renal is 21.6 µM; in the assay with OVCAR-8 ovarian, 18.8 µM; in the assay on DU-145 prostate, 33.7 µM; with HCT-116 colon it was 16.3 µM. Also, the TGI in the assay on HCC-2998 colon was 27.9 µM; in the assay with UACC-257 melanoma, 32.2 µM; in the assay with K-562 leukemia it was greater than 100 µM; in the assay on A498 renal, greater than 55.6 µM; in the assay on COLO 205 colon it was greater than 55.8 µM; in the assay with BT-549 breast, 42.6 µM. Moreover, the TGI was greater than 83.1 µM in the assay on TK-10 renal, greater than 100 µM in the assay with OVCAR-8 ovarian, greater than 100 µM with DU-145 prostate and 54.1 µM in the assay with HCT-116 colon.
